Test results from patent US20220331247A1, “Polymeric micelle, methods of production and uses thereof” (Association for the Advancement of Tissue Engineering and …, priority 2019, published 2022).

Legend:
[1] = tested on: IL-6; test: IL-6 quantified in the medium, co-culture system; assay type: cell-based, human; details: untreated maximum about 1.2 μg/mL
Method: (§1) In an embodiment, the biological effects of dexamethasone (Dex) in monocultures and co-culture of hACs and THP-1 were analysed. To compare the biological effects of free Dex and the polymeric micelles encapsulating Dex, monoculture and co-culture systems of hACs and stimulated M1 macrophages were used. Three different conditions were tested: (i) no treatment (Ctr), (ii) treatment with micelles encapsulating Dex (Mic+Dex), and (iii) treatment with free Dex (Dex). The concentration of Dex was […], and in the co-culture system, 50 mU of GR was added.
TNF-α and IL-6 cytokines (FIGS. 5C and D, respectively) were quantified in the medium. […] This may be explained due to the controlled release of Dex from the polymeric micelles over the time. With regard to IL-6, the establishment of the co-culture system increased IL-6 amount to a maximum of about 1.2 μg/mL. In this case, both the polymeric micelles with encapsulated Dex and free Dex were able to effectively reduce the amount of IL-6 in the medium to about 0.1 μg/mL.
(§2) The samples were analyzed for (i) cell viability, (ii) cell proliferation, (C) TNF-α concentration, and (D) IL-6 concentration. The alphabet “a” denotes significant difference compared to the hACs Ctr, “b” denotes significant difference compared to the THP-1 Ctr, and “c” denotes significant difference as compared to the co-culture Ctr where p<0.01.

[2] = tested on: hACs cultured in monolayer; test: Biological effects of Dex treatments in hACs monoculture; assay type: cell-based, human; details: Dex 100 WI
Method: as §1, §2

## C[C@@H]1C[C@H]2[C@@H]3CCC4=CC(=O)C=C[C@]4(C)[C@@]3(F)[C@@H](O)C[C@]2(C)[C@@]1(O)C(=O)CO [Dex, dexamethasone]
[1]
  amount of IL-6 in the medium after treatment: about 0.1 μg/mL
[2]
  hACs' viability and proliferation vs Ctr: significantly reduced
